Like-named read-outs stand apart in the source and are kept apart here.
Assays:
[1] = biological target: T1, Norepinephrine transporter (Homo sapiens, UniProt P23975); test: Off‐target panel: Norepinephrine transporter; type: cell-based
Experimental: (§1) GSK716 selectivity and PK properties were profiled in order to investigate the suitability of GSK716 for progression into in vivo studies and the potential for taking it forward as a clinical candidate for testing in humans. Since GSK716 results in loss of inhibitory activity of α1‐antitrypsin, the effect of the compound was assessed on other closely related serpins. […] Furthermore, there were no off‐target effects in a panel of assays considered predictive of known safety liabilities that precluded further development of GSK716 (Table EV1).

Histamine H1 = Histamine H1 (Homo sapiens, UniProt P35367); test: Off‐target panel: Histamine H1; type: cell-based; settings: Antagonist, read-out: Mean (PXC50)
Experimental: as §1

Z α1‐antitrypsin = Z α1‐antitrypsin (Homo sapiens, UniProt P01009, E366K); test: Stoichiometry of inhibition against chymotrypsin, Z α1‐antitrypsin; type: biochemical; parameters: purified from the plasma of Z α1‐antitrypsin homozygotes; from tissue; host or cells: human plasma of Z α1-antitrypsin homozygotes; settings: Z α1‐antitrypsin pre‐incubated with GSK716 (50µM), read-out: loss of protease inhibitory activity
Experimental: Mutations that interfere with the opening of β‐sheet A or that perturb its interaction with the N‐terminal portion of the reactive centre loop alter the ability of serpins to inhibit target proteases (Hood et al, 1994; Irving et al, 2014). The stoichiometry of inhibition (SI) was determined for M α1‐antitrypsin and Z α1‐antitrypsin in discontinuous experiments against a model target protease, chymotrypsin. The pre‐incubation of both variants with GSK716 led to a > 98% loss of protease inhibitory activity (Fig 5A).
Figure 5 The effect of GSK716 on serpin inhibitory activity • α1‐Antitrypsin was incubated at varying molar ratios with the model protease bovine α‐chymotrypsin, and the residual protease activity determined. […] The position of covalent α1‐antitrypsin‐chymotrypsin complex (cpx), native (nat) and cleaved (clv) is shown. • The inhibitory activity of α1‐antichymotrypsin against chymotrypsin (ach + chym), neuroserpin against trypsin (neus + tryp), and antithrombin against thrombin (atiii + thrombin) was determined in the presence and absence of GSK716. […]
The native state stability of α1‐antitrypsin on addition of compounds was investigated by thermal denaturation in the presence of a 5X concentration of SYPRO Orange dye solution (Life Technologies) (Nettleship et al, 2008). Resistance to heat‐induced polymerisation was determined using an end‐point constant‐temperature assay. […]

[2] = biological target: T1, Norepinephrine transporter; test: Off‐target panel: Norepinephrine transporter (DRX); type: cell-based
Experimental: as §1

[3] = Total and unbound drug concentrations in blood and liver of Z α1‐antitrypsin transgenic mice; type: in vivo; settings: for concentration at 123 h / concentration at 128 h / concentration at 339 h / concentration at 483 h: female, mouse, oral
Experimental: GSK716 was evaluated in a transgenic mouse model with an engineered random insertion of the human Z α1‐antitrypsin gene (Teckman et al, 2004). […] Further, older mice have larger α1‐antitrypsin inclusions that may be more difficult to reverse and any changes would be more difficult to detect than in younger animals. The PK‐PD relationship of GSK716 was explored by dosing Z α1‐antitrypsin transgenic animals with 10, 30 or 100 mg/kg GSK716 three times a day. […] Blood was also harvested for the measurement of monomeric Z α1‐antitrypsin in plasma. Total concentrations of GSK716 were determined by LC‐MS/MS, and the free drug in both tissues was determined using equilibrium dialysis to determine free fraction in the samples, subsequently used to derive unbound concentrations. […] Both free and total drug concentrations of GSK716 at the targeted site of action in the liver were equivalent to those in blood (Table 2).
Male CD‐1 mice, Han Wistar rats or beagle dogs were administered GSK716 as a suspension in 1% w/v aqueous methylcellulose via oral gavage at doses of 1 mg/kg (dog) or 10, 30 and 100 mg/kg (mouse, rat). Blood samples were taken into EDTA, diluted and mixed with acetonitrile containing internal standard (alprazolam) and centrifuged to precipitate proteins. Aliquots of the resultant supernatant were analysed by LC‐MS/MS, and concentrations of GSK716 in blood were determined. Non‐compartmental pharmacokinetic analysis (NCA) was carried out using Phoenix WinNonLin 6.3 (Certara L.P.). Free drug was measured in Z α1‐antitrypsin transgenic mice by dialysing tissue samples in rapid equilibrium dialysis cassettes.
Hemizygous female Z α1‐antitrypsin transgenic mice were 13–15 weeks of age at start of study. Drugs were administered via oral gavage three times a day at 8‐h intervals at 10 ml/Kg as a suspension in aqueous methylcellulose containing 0.5% w/v Tween 80. In life, blood sampling was performed vial tail nick. Animals were housed in licensed, approved housing in the UK with appropriate enrichment. Animals were randomly assigned to groups using manual methods. Histopathology analysis was performed blind.

[4] = Z α1-antitrypsin transgenic (hemizygous), whole blood, 100 mg/kg, 100 mg/kg three times a day, read-out: TOTAL mean concentration ± SD, Blood
[5] = Z α1-antitrypsin transgenic (hemizygous), whole blood, 100 mg/kg, 100 mg/kg three times a day, read-out: UNBOUND mean concentration ± SD, Blood
[6] = hemizygous Z α1-antitrypsin transgenic, liver, 100 mg/kg three times a day, read-out: TOTAL mean concentration ± SD, Liver

T1 sequence (P23975 whole entry, species assumed): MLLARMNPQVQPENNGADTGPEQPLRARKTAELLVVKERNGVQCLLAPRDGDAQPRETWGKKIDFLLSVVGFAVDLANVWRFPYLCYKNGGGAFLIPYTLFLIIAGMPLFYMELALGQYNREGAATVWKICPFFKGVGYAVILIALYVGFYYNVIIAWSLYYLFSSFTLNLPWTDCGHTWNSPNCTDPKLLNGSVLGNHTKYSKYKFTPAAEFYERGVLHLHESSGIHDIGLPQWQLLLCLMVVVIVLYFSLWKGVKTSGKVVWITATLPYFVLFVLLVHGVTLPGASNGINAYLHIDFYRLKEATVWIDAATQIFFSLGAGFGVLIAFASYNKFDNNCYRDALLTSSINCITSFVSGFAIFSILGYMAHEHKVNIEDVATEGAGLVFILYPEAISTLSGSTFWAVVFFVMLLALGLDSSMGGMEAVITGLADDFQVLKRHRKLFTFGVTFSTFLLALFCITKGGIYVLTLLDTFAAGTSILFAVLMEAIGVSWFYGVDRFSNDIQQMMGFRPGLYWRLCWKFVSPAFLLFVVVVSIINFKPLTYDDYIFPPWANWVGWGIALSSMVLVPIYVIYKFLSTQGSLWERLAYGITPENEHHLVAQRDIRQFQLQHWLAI
Z α1‐antitrypsin, sequence (P01009 25-418 E366K): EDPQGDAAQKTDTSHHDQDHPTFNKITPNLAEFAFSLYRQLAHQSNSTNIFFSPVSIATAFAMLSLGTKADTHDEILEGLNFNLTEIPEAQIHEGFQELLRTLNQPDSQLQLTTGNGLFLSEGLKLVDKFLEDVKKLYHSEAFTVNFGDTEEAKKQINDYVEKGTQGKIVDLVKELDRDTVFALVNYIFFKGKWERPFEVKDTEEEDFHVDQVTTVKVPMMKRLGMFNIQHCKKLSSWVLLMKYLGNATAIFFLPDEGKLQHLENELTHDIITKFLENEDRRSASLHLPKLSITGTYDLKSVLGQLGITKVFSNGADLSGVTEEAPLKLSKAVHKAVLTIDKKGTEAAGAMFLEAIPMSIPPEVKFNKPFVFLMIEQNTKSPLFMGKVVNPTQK
Histamine H1, sequence (P35367 whole entry): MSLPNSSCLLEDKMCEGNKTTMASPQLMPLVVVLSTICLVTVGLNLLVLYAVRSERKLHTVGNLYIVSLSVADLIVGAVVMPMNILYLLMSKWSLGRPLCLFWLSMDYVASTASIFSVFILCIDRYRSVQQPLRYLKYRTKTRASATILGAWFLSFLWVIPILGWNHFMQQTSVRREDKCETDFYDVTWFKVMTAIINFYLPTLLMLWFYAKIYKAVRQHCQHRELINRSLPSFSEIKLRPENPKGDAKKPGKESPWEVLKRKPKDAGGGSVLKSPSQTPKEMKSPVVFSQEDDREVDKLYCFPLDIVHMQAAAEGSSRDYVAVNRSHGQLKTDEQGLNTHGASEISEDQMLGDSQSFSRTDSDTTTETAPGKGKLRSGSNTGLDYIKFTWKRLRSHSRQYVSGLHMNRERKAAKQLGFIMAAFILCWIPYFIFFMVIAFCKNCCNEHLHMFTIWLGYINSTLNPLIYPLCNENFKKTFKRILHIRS

`CCC[C@@H](NC(=O)c1cccc2c1CC(=O)N2)[C@@H](O)c1cccc(F)c1C` [GSK716] showed an IC50 [1] greater than 100 µM, an IC50 (Histamine H1) greater than 25.1 µM and an inhibition at 50 µM (Z α1‐antitrypsin) greater than 98%. For the same compound, the IC50 [2] was greater than 100 µM, the “UNBOUND mean concentration ± SD, Liver” value ([3]; 30 mg/kg three times a day, time 128 h) was 0.075 (± 0.04 µM and the concentration at 123 h ([3]; Z α1-antitrypsin transgenic (hemizygous), liver, 10 mg/kg, 10 mg/kg three times a day, read-out: TOTAL mean concentration ± SD, Liver) was 3.5 µM. It also gave a concentration at 123 h ([3]; Z α1-antitrypsin transgenic (hemizygous), liver, 10 mg/kg, 10 mg/kg three times a day, read-out: UNBOUND mean concentration ± SD, Liver) of 0.035 µM, a concentration at 128 h ([3]; Z α1-antitrypsin transgenic (hemizygous), liver, 10 mg/kg, 10 mg/kg three times a day, time 128 h, read-out: TOTAL mean concentration ± SD, Liver) of 2.1 µM and a concentration at 128 h ([3]; Z α1-antitrypsin transgenic (hemizygous), liver, 10 mg/kg, 10 mg/kg three times a day, time 128 h, read-out: UNBOUND mean concentration ± SD, Liver) of 0.028 µM. It also gave a concentration at 123 h ([3]; Z α1-antitrypsin transgenic (hemizygous), liver, 30 mg/kg, 30 mg/kg three times a day, read-out: TOTAL mean concentration ± SD, Liver) of 6.7 µM, a concentration at 123 h ([3]; Z α1-antitrypsin transgenic (hemizygous), liver, 30 mg/kg, 30 mg/kg three times a day, read-out: UNBOUND mean concentration ± SD, Liver) of 0.091 µM and a concentration at 128 h ([3]; Z α1-antitrypsin transgenic (hemizygous), liver, 30 mg/kg, 30 mg/kg three times a day, time 128 h, read-out: TOTAL mean concentration ± SD, Liver) of 8.3 µM. The concentration at 123 h ([3]; Z α1-antitrypsin transgenic (hemizygous), liver, 100 mg/kg, 100 mg/kg three times a day, read-out: TOTAL mean concentration ± SD, Liver) was 40.9 µM, the concentration at 123 h ([3]; Z α1-antitrypsin transgenic (hemizygous), liver, 100 mg/kg, 100 mg/kg three times a day, read-out: UNBOUND mean concentration ± SD, Liver) was 1.05 µM and the concentration at 128 h ([3]; Z α1-antitrypsin transgenic (hemizygous), liver, 100 mg/kg, 100 mg/kg three times a day, time 128 h, read-out: TOTAL mean concentration ± SD, Liver) was 28.4 µM. For the same compound, the concentration at 128 h ([3]; Z α1-antitrypsin transgenic (hemizygous), liver, 100 mg/kg, 100 mg/kg three times a day, time 128 h, read-out: UNBOUND mean concentration ± SD, Liver) was 0.679 µM, the concentration at 123 h ([3]; Z α1-antitrypsin transgenic (hemizygous), whole blood, 10 mg/kg, 10 mg/kg three times a day, read-out: TOTAL mean concentration ± SD, Blood) was 8.7 µM and the concentration at 123 h ([3]; Z α1-antitrypsin transgenic (hemizygous), whole blood, 10 mg/kg, 10 mg/kg three times a day, read-out: UNBOUND mean concentration ± SD, Blood) was 0.018 µM. The concentration at 128 h ([3]; Z α1-antitrypsin transgenic (hemizygous), whole blood, 10 mg/kg, 10 mg/kg three times a day, time 128 h, read-out: TOTAL mean concentration ± SD, Blood) was 7.7 µM, the concentration at 128 h ([3]; Z α1-antitrypsin transgenic (hemizygous), whole blood, 10 mg/kg, 10 mg/kg three times a day, time 128 h, read-out: UNBOUND mean concentration ± SD, Blood) was 0.009 µM and the concentration at 123 h ([3]; Z α1-antitrypsin transgenic (hemizygous), whole blood, 30 mg/kg, 30 mg/kg three times a day, read-out: TOTAL mean concentration ± SD, Blood) was 14 µM. The concentration at 123 h ([3]; Z α1-antitrypsin transgenic (hemizygous), whole blood, 30 mg/kg, 30 mg/kg three times a day, read-out: UNBOUND mean concentration ± SD, Blood) was 0.061 µM, the concentration at 128 h ([3]; Z α1-antitrypsin transgenic (hemizygous), whole blood, 30 mg/kg, 30 mg/kg three times a day, time 128 h, read-out: TOTAL mean concentration ± SD, Blood) was 13 µM and the concentration at 128 h ([3]; Z α1-antitrypsin transgenic (hemizygous), whole blood, 30 mg/kg, 30 mg/kg three times a day, time 128 h, read-out: UNBOUND mean concentration ± SD, Blood) was 0.051 µM. For the same compound, the concentration at 123 h [3, 4] was 33 µM, the concentration at 123 h [3, 5] was 0.49 µM and the concentration at 128 h ([3]; Z α1-antitrypsin transgenic (hemizygous), whole blood, 100 mg/kg, 100 mg/kg three times a day, time 128 h, read-out: TOTAL mean concentration ± SD, Blood) was 20 µM. For the same compound, the concentration at 128 h ([3]; Z α1-antitrypsin transgenic (hemizygous), whole blood, 100 mg/kg, 100 mg/kg three times a day, time 128 h, read-out: UNBOUND mean concentration ± SD, Blood) was 0.18 µM, the concentration at 339 h [3, 4] was 30 µM and the concentration at 339 h [3, 5] was 0.529 µM. The concentration at 483 h ([3]; hemizygous Z α1-antitrypsin transgenic, blood, 100 mg/kg three times a day, read-out: TOTAL mean concentration ± SD, Blood) was 22 µM, the concentration at 483 h ([3]; hemizygous Z α1-antitrypsin transgenic, blood, 100 mg/kg three times a day, read-out: UNBOUND mean concentration ± SD, Blood) was 0.561 µM and the concentration at 339 h [3, 6] was 84.6 µM. For the same compound, the concentration at 483 h [3, 6] was 42.4 µM.

From article PMC7933930, “Development of a small molecule that corrects misfolding and increases secretion of Z α1‐antitrypsin” (EMBO Molecular Medicine, 2021)
